Among the data in ChEMBL document CHEMBL6078657, “Thiazolidinedione-based structure modification of ergosterol peroxide provides thiazolidinedione-conjugated derivatives as potent agents against breast cancer cells through a PI3K/AKT/mTOR pathway” (Bioorg Med Chem, 2025) are IC50 values, retold here.

A word on the IC50: it is the concentration needed to halve the response being measured.

Common to all, as to format: functional, cell-based
The test system of one assay is A549. Kind of assay: Antiproliferative activity against human A549 cells assessed as cell viability measured after 48 hrs incubation by MTT assay. The note with it: A549, 48 h. (Tetrazolium assays rely on reduction of a dye to a coloured formazan, in cell work by metabolically active cells.)
The subject of the next assay is HepG2. As to the kind of experiment: Antiproliferative activity against human HepG2 cells assessed as cell viability measured after 48 hrs incubation by MTT assay. The note with it: HepG2, 48 h.
Another assay has as its system MCF7. Kind of assay: Antiproliferative activity against human MCF7 cells assessed as cell viability measured after 48 hrs incubation by MTT assay. The conditions noted are these: MCF7, 48 h.

On to `CC(C)[C@@H](C)/C=C/[C@@H](C)[C@H]1CC[C@@H]2[C@]1(C)CC[C@H]1[C@]23C=C[C@]2(C[C@@H](OC(=O)N4CCN(C(=O)CN5C(=O)S/C(=C\c6ccsc6)C5=O)CC4)CC[C@]12C)OO3`, for which the IC50 is 8.14 µM in the assay with A549, 16.8 µM in the assay with HepG2 and 13.6 µM in the assay on MCF7.
The corresponding values for `CC(C)[C@@H](C)/C=C/[C@@H](C)[C@H]1CC[C@@H]2[C@]1(C)CC[C@H]1[C@]23C=C[C@]2(C[C@@H](OC(=O)CN4C(=O)CSC4=O)CC[C@]12C)OO3` are 7.52 µM, 17.7 µM and 10.4 µM.
Regarding `CC(C)[C@@H](C)/C=C/[C@@H](C)[C@H]1CC[C@@H]2[C@]1(C)CC[C@H]1[C@]23C=C[C@]2(C[C@@H](OC(=O)CN4C(=O)S/C(=C/c5ccc(Cl)cc5)C4=O)CC[C@]12C)OO3`, the figures for the IC50 in the assay with A549, in the assay with HepG2 and in the assay on MCF7 were 9.18 µM, 13.5 µM and 9.92 µM, respectively.
`COc1ccc(/C=C2/SC(=O)N(CC(=O)O[C@H]3CC[C@]4(C)[C@H]5CC[C@]6(C)[C@@H]([C@H](C)/C=C/[C@H](C)C(C)C)CC[C@H]6[C@@]56C=C[C@]4(C3)OO6)C2=O)cc1`: the values for the IC50 with A549, in the assay with HepG2 and in the assay on MCF7 were 9.91 µM, 10.7 µM and 18.4 µM, respectively.
The corresponding values for `CC(C)[C@@H](C)/C=C/[C@@H](C)[C@H]1CC[C@@H]2[C@]1(C)CC[C@H]1[C@]23C=C[C@]2(C[C@@H](OC(=O)N4CCN(C(=O)CN5C(=O)S/C(=C\c6ccc(F)c(Cl)c6)C5=O)CC4)CC[C@]12C)OO3` are 12.5 µM, 13.7 µM and 15.2 µM.
For the compound `CC(C)[C@@H](C)/C=C/[C@@H](C)[C@H]1CC[C@@H]2[C@]1(C)CC[C@H]1[C@]23C=C[C@]2(C[C@@H](OC(=O)CN4C(=O)S/C(=C/c5ccccc5)C4=O)CC[C@]12C)OO3`, the figures for the IC50 in the assay with A549, in the assay with HepG2 and in the assay on MCF7 were 13.7 µM, 17.6 µM and 12.5 µM, respectively.
On to `CC(C)[C@@H](C)/C=C/[C@@H](C)[C@H]1CC[C@@H]2[C@]1(C)CC[C@H]1[C@]23C=C[C@]2(C[C@@H](OC(=O)CN4C(=O)S/C(=C/c5ccc(C(C)(C)C)cc5)C4=O)CC[C@]12C)OO3`, for which the results for the IC50 in the assay on A549, with HepG2 and in the assay with MCF7 were 8.31 µM, 15.4 µM and 9.44 µM, respectively.
In the case of `CC(C)[C@@H](C)/C=C/[C@@H](C)[C@H]1CC[C@@H]2[C@]1(C)CC[C@H]1[C@]23C=C[C@]2(C[C@@H](OC(=O)N4CCN(C(=O)CN5C(=O)S/C(=C\c6ccc(F)cc6)C5=O)CC4)CC[C@]12C)OO3`, the IC50 in the assay on A549 stood at 9.34 µM; in the assay with HepG2 it was 12 µM; in the assay on MCF7 it was 12.2 µM.
Regarding `CC(C)[C@@H](C)/C=C/[C@@H](C)[C@H]1CC[C@@H]2[C@]1(C)CC[C@H]1[C@]23C=C[C@]2(C[C@@H](OC(=O)N4CCN(C(=O)CN5C(=O)S/C(=C\c6ccc(Br)cc6)C5=O)CC4)CC[C@]12C)OO3`, the IC50 in the assay with A549 was determined as 5.74 µM; in the assay with HepG2 it was 12.4 µM; in the assay on MCF7 it was 10.4 µM.
Regarding `CC(C)[C@@H](C)/C=C/[C@@H](C)[C@H]1CC[C@@H]2[C@]1(C)CC[C@H]1[C@]23C=C[C@]2(C[C@@H](OC(=O)CN4C(=O)S/C(=C/c5ccc(Cl)cc5Cl)C4=O)CC[C@]12C)OO3`, the IC50 stood at 11 µM in the assay on A549, 13.1 µM with HepG2 and 10.2 µM in the assay with MCF7.
On to `CC(C)[C@@H](C)/C=C/[C@@H](C)[C@H]1CC[C@@H]2[C@]1(C)CC[C@H]1[C@]23C=C[C@]2(C[C@@H](OC(=O)CN4C(=O)S/C(=C/c5cccc6ccccc56)C4=O)CC[C@]12C)OO3`, for which the half-maximal inhibitory concentration (IC50) in the assay with A549 stood at 10.3 µM; in the assay on HepG2 it was 6.08 µM; in the assay on MCF7, 14.7 µM.
As to `CC(C)[C@@H](C)/C=C/[C@@H](C)[C@H]1CC[C@@H]2[C@]1(C)CC[C@H]1[C@]23C=C[C@]2(C[C@@H](OC(=O)N4CCN(C(=O)CN5C(=O)S/C(=C\c6ccccc6F)C5=O)CC4)CC[C@]12C)OO3`, the IC50 in the assay with A549 was 6.95 µM; in the assay with HepG2 it was 10.8 µM; with MCF7, 15.8 µM.
As to `COc1ccc(/C=C2/SC(=O)N(CC(=O)O[C@H]3CC[C@]4(C)[C@H]5CC[C@]6(C)[C@@H]([C@H](C)/C=C/[C@H](C)C(C)C)CC[C@H]6[C@@]56C=C[C@]4(C3)OO6)C2=O)cc1OC`, the IC50 is 15.2 µM with A549, 18 µM in the assay on HepG2 and 13.6 µM in the assay on MCF7.
Turning to `CC(C)[C@@H](C)/C=C/[C@@H](C)[C@H]1CC[C@@H]2[C@]1(C)CC[C@H]1[C@]23C=C[C@]2(C[C@@H](OC(=O)CN4C(=O)S/C(=C/c5ccc(F)cc5)C4=O)CC[C@]12C)OO3`, the results for the half-inhibitory concentration (IC50) with A549, in the assay on HepG2 and in the assay with MCF7 were 11.7 µM, 14.7 µM and 16.1 µM, respectively.
The like results for `CC(C)/C=C1/SC(=O)N(CC(=O)O[C@H]2CC[C@]3(C)[C@H]4CC[C@]5(C)[C@@H]([C@H](C)/C=C/[C@H](C)C(C)C)CC[C@H]5[C@@]45C=C[C@]3(C2)OO5)C1=O` were, in that order, 7.65 µM, 14.6 µM and 20.4 µM.
For the compound `CC(C)/C=C1\SC(=O)N(CC(=O)N2CCN(C(=O)O[C@H]3CC[C@]4(C)[C@H]5CC[C@]6(C)[C@@H]([C@H](C)/C=C/[C@H](C)C(C)C)CC[C@H]6[C@@]56C=C[C@]4(C3)OO6)CC2)C1=O`, the IC50 is 7.69 µM in the assay on A549, 10.5 µM in the assay on HepG2 and 8.89 µM in the assay on MCF7.
For `Cc1ccc(/C=C2/SC(=O)N(CC(=O)O[C@H]3CC[C@]4(C)[C@H]5CC[C@]6(C)[C@@H]([C@H](C)/C=C/[C@H](C)C(C)C)CC[C@H]6[C@@]56C=C[C@]4(C3)OO6)C2=O)cc1`, the IC50 in the assay on A549 came to 14.2 µM; in the assay with HepG2, 14.6 µM; in the assay with MCF7, 11.5 µM.
Regarding `CC(C)[C@@H](C)/C=C/[C@@H](C)[C@H]1CC[C@@H]2[C@]1(C)CC[C@H]1[C@]23C=C[C@]2(C[C@@H](OC(=O)N4CCN(C(=O)CN5C(=O)S/C(=C\C6CC6)C5=O)CC4)CC[C@]12C)OO3`, the IC50 in the assay on A549 worked out at 6.06 µM; in the assay on HepG2, 8.97 µM; with MCF7, 7.17 µM.
As to `CC(C)[C@@H](C)/C=C/[C@@H](C)[C@H]1CC[C@@H]2[C@]1(C)CC[C@H]1[C@]23C=C[C@]2(C[C@@H](OC(=O)NCCNC(=O)CN4C(=O)S/C(=C\c5ccc(F)cc5)C4=O)CC[C@]12C)OO3`, the IC50 in the assay on A549 was found to be 9.17 µM; in the assay with HepG2 it was 13.3 µM; in the assay with MCF7, 11.6 µM.
As to `COc1ccc(/C=C2\SC(=O)N(CC(=O)N3CCN(C(=O)O[C@H]4CC[C@]5(C)[C@H]6CC[C@]7(C)[C@@H]([C@H](C)/C=C/[C@H](C)C(C)C)CC[C@H]7[C@@]67C=C[C@]5(C4)OO7)CC3)C2=O)c(OC)c1OC`, the figures for the IC50 with A549, with HepG2 and with MCF7 were 5.17 µM, 9.75 µM and 8.96 µM, respectively.
With `CC(C)[C@@H](C)/C=C/[C@@H](C)[C@H]1CC[C@@H]2[C@]1(C)CC[C@H]1[C@]23C=C[C@]2(C[C@@H](OC(=O)N4CCN(C(=O)CN5C(=O)S/C(=C\c6ccc(C(C)(C)C)cc6)C5=O)CC4)CC[C@]12C)OO3`, the figures for the IC50 in the assay with A549, with HepG2 and in the assay on MCF7 were 11.6 µM, 19.5 µM and 14.4 µM, respectively.
The like results for `COc1ccccc1/C=C1\SC(=O)N(CC(=O)N2CCN(C(=O)O[C@H]3CC[C@]4(C)[C@H]5CC[C@]6(C)[C@@H]([C@H](C)/C=C/[C@H](C)C(C)C)CC[C@H]6[C@@]56C=C[C@]4(C3)OO6)CC2)C1=O` were, in that order, 10.2 µM, 22.6 µM and 15.4 µM.
For the compound `Cc1ccc(/C=C2\SC(=O)N(CC(=O)N3CCN(C(=O)O[C@H]4CC[C@]5(C)[C@H]6CC[C@]7(C)[C@@H]([C@H](C)/C=C/[C@H](C)C(C)C)CC[C@H]7[C@@]67C=C[C@]5(C4)OO7)CC3)C2=O)cc1`, the IC50 was 7.01 µM in the assay with A549, 10.4 µM with HepG2 and 9.45 µM in the assay on MCF7.
The corresponding values for `CC(C)[C@@H](C)/C=C/[C@@H](C)[C@H]1CC[C@@H]2[C@]1(C)CC[C@H]1[C@]23C=C[C@]2(C[C@@H](OC(=O)CN4C(=O)S/C(=C/c5ccco5)C4=O)CC[C@]12C)OO3` are 15 µM, 20.2 µM and 21 µM.
For `CC(C)[C@@H](C)/C=C/[C@@H](C)[C@H]1CC[C@@H]2[C@]1(C)CC[C@H]1[C@]23C=C[C@]2(C[C@@H](OC(=O)CN4C(=O)S/C(=C/C5CC5)C4=O)CC[C@]12C)OO3`, the values for the half-inhibitory concentration (IC50) in the assay with A549, in the assay on HepG2 and with MCF7 were 13 µM, 13.1 µM and 9.35 µM, respectively.
`CC(C)[C@@H](C)/C=C/[C@@H](C)[C@H]1CC[C@@H]2[C@]1(C)CC[C@H]1[C@]23C=C[C@]2(C[C@@H](OC(=O)N4CCN(C(=O)CN5C(=O)S/C(=C\c6ccc(Cl)cc6Cl)C5=O)CC4)CC[C@]12C)OO3`: the results for the IC50 in the assay on A549, with HepG2 and in the assay with MCF7 were 11.7 µM, 15.6 µM and 12.9 µM, respectively.
Turning to `COc1ccc(/C=C2\SC(=O)N(CC(=O)N3CCN(C(=O)O[C@H]4CC[C@]5(C)[C@H]6CC[C@]7(C)[C@@H]([C@H](C)/C=C/[C@H](C)C(C)C)CC[C@H]7[C@@]67C=C[C@]5(C4)OO7)CC3)C2=O)cc1OC`, the IC50 turned out to be 7.75 µM in the assay on A549, 21.5 µM in the assay on HepG2 and 13.6 µM in the assay with MCF7.
Regarding `CC(C)[C@@H](C)/C=C/[C@@H](C)[C@H]1CC[C@@H]2[C@]1(C)CC[C@H]1[C@]23C=C[C@]2(C[C@@H](OC(=O)CN4C(=O)S/C(=C/c5ccc(Br)cc5)C4=O)CC[C@]12C)OO3`, the values for the IC50 in the assay with A549, with HepG2 and in the assay on MCF7 were 9.5 µM, 17.8 µM and 12.3 µM, respectively.
In the case of `CC(C)[C@@H](C)/C=C/[C@@H](C)[C@H]1CC[C@H]2C3=CC=C4C[C@@H](OC(=O)NCCNC(=O)CN5C(=O)S/C(=C\c6cccc7ccccc67)C5=O)CC[C@]4(C)[C@H]3CC[C@]12C`, the concentration for half-maximal inhibition (IC50) in the assay with A549, in the assay with HepG2 and in the assay on MCF7 was over 80 µM in each case.
